The values below are quoted from earlier work in patent US20260024626A1, “TOXICITY […], OPERATION METHOD OF TOXICITY […], AND OPERATION PROGRAM OF TOXICITY […]” (FUJIFILM Corporation, priority 2023, published 2026).

For data set [1] the following is noted: actual test outcome, as against the positive outcome expected from the assumed metabolic reaction.
[2] abbreviates: With metabolic activation (rat liver extract and coenzyme added).
[3] abbreviates: Without metabolic activation (no rat liver extract and coenzyme).

Where two headings read alike, the source gives them in different places.

With `Nc1ccccc1Cl` [compound C], the “Ames test result (toxicity), TA100, Covalent bonding to DNA” value (“Ames test result (toxicity), TA100” for short) with TA100 (setting [2]) and in the data set on TA100 (setting [3]) was “No” in each case. The “Ames test result (toxicity), TA1535, Covalent bonding to DNA” value (“Ames test result (toxicity), TA1535” for short) in the data set with TA1535 (setting [2]) and in the data set with TA1535 (setting [3]) was “No” each time. Moreover, the “Ames test result (toxicity), WP2uvrA, Covalent bonding to DNA” value (from here on “Ames test result (toxicity), WP2uvrA”) in the data set on WP2uvrA (setting [2]) and in the data set with WP2uvrA (setting [3]) was “No” throughout. Further, the “Ames test result (toxicity), TA98, Intercalation between base pairs” value (shortened to “Ames test result (toxicity), TA98”) in the data set with TA98 (setting [2]) and in the data set on TA98 (setting [3]) was “No” each time. Moreover, the “Ames test result (toxicity), TA1537, Intercalation between base pairs” value (shortened to “Ames test result (toxicity), TA1537”) with TA1537 (setting [2]) and with TA1537 (setting [3]) was “No” each time.

With `Nc1ccccc1-c1ccccc1` [compound B], the results for the “Ames test result (toxicity), TA100” value with TA100 (setting [2]) and with TA100 (setting [3]) were “Toxic” and “No”, respectively. Moreover, the “Ames test result (toxicity), TA1535” value with TA1535 (setting [2]) and with TA1535 (setting [3]) was “No” throughout. The “Ames test result (toxicity), WP2uvrA” value in the data set on WP2uvrA (setting [2]) and in the data set with WP2uvrA (setting [3]) was “No” throughout. For the same molecule, the “Ames test result (toxicity), TA98” value in the data set with TA98 (setting [2]) and in the data set on TA98 (setting [3]) was “No” in each case. Further, the “Ames test result (toxicity), TA1537” value in the data set on TA1537 (setting [2]) and in the data set on TA1537 (setting [3]) was “No” each time.

For `Nc1ccccc1O` [compound A], the “Ames test result (toxicity), TA100” value in the data set with TA100 (setting [2]) is given as “Toxic”; with TA100 (setting [3]), “No”. In addition, the “Ames test result (toxicity), TA1535” value in the data set with TA1535 (setting [2]) and in the data set on TA1535 (setting [3]) was “No” in each case. The “Ames test result (toxicity), WP2uvrA” value in the data set with WP2uvrA (setting [2]) and in the data set on WP2uvrA (setting [3]) was “No” in each case. The “Ames test result (toxicity), TA98” value in the data set on TA98 (setting [2]) and in the data set with TA98 (setting [3]) was “No” in each case. The “Ames test result (toxicity), TA1537” value in the data set on TA1537 (setting [2]) and in the data set on TA1537 (setting [3]) was “No” in each case.

Turning to monomethylnitrobenzene, the “determination in the in vitro toxicity evaluation test” value in data set [1] was “negative determination”.
